Assay results reported in patent US20220135538A1, “P300/CBP HAT INHIBITORS AND METHODS FOR THEIR USE” (Constellation Pharmaceuticals, Inc., priority 2019, published 2022).

Tests used:
[1] = target: T1, p300 HAT domain (residues 1287-1666) (Homo sapiens, UniProt Q09472); test: P300 HAT SPA assay (scintillation proximity, acetylation of biotinylated H3(1-21) peptide); format: biochemical; conditions: 6 nM p300-HAT domain; average of at least 2 replicate titrations
T1 construct: The p300 HAT domain (residues 1287-1666) was expressed; His tag (N); made in house; host or cells: Escherichia coli
T1 sequence (Q09472 1287-1666): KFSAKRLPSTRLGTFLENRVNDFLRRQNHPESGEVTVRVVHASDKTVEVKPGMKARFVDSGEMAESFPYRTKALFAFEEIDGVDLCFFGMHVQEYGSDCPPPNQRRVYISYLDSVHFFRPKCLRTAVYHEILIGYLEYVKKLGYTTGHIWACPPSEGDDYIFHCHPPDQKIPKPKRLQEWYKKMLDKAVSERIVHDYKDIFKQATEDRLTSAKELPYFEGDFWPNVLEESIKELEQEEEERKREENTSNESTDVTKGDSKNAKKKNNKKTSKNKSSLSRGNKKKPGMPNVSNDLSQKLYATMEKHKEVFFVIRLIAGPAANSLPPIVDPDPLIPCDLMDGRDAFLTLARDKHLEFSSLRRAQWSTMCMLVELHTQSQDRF
Description: The activity of the compounds described herein as p300/CBP HAT inhibitors may be readily determined using a scintillation proximity assay (SPA) methodology (Udenfriend, S.; Gerber, L.; Nelson, N. Scintillation Proximity Assay: A Sensitive and Continuous Isotopic Method for Monitoring Ligand/Receptor and Antigen/Antibody Interactions. Anal. Biochem. 1987, 161, 494-500).
In a typical experiment the p300 HAT inhibitory activity of the compounds described herein was determined in accordance with the following experimental method.
The p300 HAT domain (residues 1287-1666) was expressed and purified with an N-terminal His tag from Escherichia coli cells. The expressed protein was purified by Ni2+affinity, followed by anion exchange chromatography. Appropriate fractions were pooled and buffer exchanged into 20 mM Hepes pH 7.5, 150 mM NaCl, and 1 mM TCEP.
(§1) Compounds of interest solubilized in DMSO were stamped in a Greiner black 384-well plate in a 10-point duplicate dose response using an Echo 550 (Labcyte). p300-HAT domain purified in-house (aa 1287-1666) was diluted to 6 nM in reaction buffer (50 mM Tris pH 8.0, 100 mM NaCl, 1 mM DTT, 0.069 mM Brij-35, 0.1 mM EDTA, 0.1 mg/mL BSA), combined with 4.14 μM AcCoA (Sigma-Aldrich) and 0.46 μM ^3H-AcCoA (PerkinElmer), and 12.5 μL added to each well and incubated for 30 min at RT. Reactions were initiated with 12.5 μL 2 μM biotinylated H3(1-21) peptide (New England Peptide) and run for 1 hr at RT, then quenched with 20 μL stop solution (200 mM Tris pH 8.0, 200 mM EDTA, 2M NaCl, 160 μM anacardic acid). 35 μL of the reaction volume was transferred to a 384-well streptavidin FlashPlate (PerkinElmer) using a Bravo liquid handler (Velocity 11) and incubated for 1.5 hr at RT. Plates were aspirated, washed with 95 μL wash buffer (15 mM Tris pH 8.5, 0.069 μM Brij-35), aspirated, sealed, and scintillation counts read on a Topcount (PerkinElmer). Data were analyzed in Genedata to determine inhibitor IC50 values.

[2] = tested on: acetylation of chromatin at H3K18 in HCT-116 cells; test: H3K18Ac MSD cellular assay; format: cell-based; conditions: Homo sapiens, 2 hr treatment
Description: Select compounds were also evaluated in a H3K18Ac MSD cellular assay that measures the ability of compounds to inhibit the acetylation of chromatin at H3K18, a process catalyzed by p300 and CBP. In a typical experiment the p300 HAT inhibitory activity inside cells of the compounds described herein was determined in accordance with the following experimental method. 20 k HCT-116 cells per well are plated in 75 μL RPMI+10% FBS media the night before treatment. Compounds plated in DMSO at 4× final concentration are resuspended in 30 μL RPMI+10% FBS, then 25 μL is combined with corresponding wells containing cells. Treated cells are incubated for 2 hr at 37° C., then lysed in 500 μL final volume and frozen at −80° C. MSD plates (Meso Scale Discovery) are coated overnight at 4° C. with 60 μL 1:500 α-total histone antibody (Millipore MAB3422) in PBS. Plates are then blocked with 5% BSA in TBST shaking at RT for 1 hr, washed, and 30 μL lysate added to each well for 2 hr shaking at RT. Plates are washed and 25 μL 1:216 α-H3K18ac antibody (CST 9675) in PBS added, then incubated for 1 hr shaking at RT. Plates are washed again, then 25 μL 1:1000 Sulfo-Tag goat α-rabbit antibody (Meso Scale Discovery R32Ab-1) in PBS is added for 1 hr shaking at RT. Plates are washed once more, then 150 μL 1× Read Buffer (MSD #R92TD-3) is added to all wells and read on MSD SECTOR Imager 2400 using the conventional read setup.

full length p300 = target: T2, full length p300 (Homo sapiens, UniProt Q09472); test: Full length p300 SPA assay; format: biochemical; conditions: 6 nM purified full length p300; read-out: FL P300 IC50
T2 construct: used 6 nM purified full length p300 (purchased from Active Motif); purchased Active Motif
T2 sequence (Q09472 whole entry): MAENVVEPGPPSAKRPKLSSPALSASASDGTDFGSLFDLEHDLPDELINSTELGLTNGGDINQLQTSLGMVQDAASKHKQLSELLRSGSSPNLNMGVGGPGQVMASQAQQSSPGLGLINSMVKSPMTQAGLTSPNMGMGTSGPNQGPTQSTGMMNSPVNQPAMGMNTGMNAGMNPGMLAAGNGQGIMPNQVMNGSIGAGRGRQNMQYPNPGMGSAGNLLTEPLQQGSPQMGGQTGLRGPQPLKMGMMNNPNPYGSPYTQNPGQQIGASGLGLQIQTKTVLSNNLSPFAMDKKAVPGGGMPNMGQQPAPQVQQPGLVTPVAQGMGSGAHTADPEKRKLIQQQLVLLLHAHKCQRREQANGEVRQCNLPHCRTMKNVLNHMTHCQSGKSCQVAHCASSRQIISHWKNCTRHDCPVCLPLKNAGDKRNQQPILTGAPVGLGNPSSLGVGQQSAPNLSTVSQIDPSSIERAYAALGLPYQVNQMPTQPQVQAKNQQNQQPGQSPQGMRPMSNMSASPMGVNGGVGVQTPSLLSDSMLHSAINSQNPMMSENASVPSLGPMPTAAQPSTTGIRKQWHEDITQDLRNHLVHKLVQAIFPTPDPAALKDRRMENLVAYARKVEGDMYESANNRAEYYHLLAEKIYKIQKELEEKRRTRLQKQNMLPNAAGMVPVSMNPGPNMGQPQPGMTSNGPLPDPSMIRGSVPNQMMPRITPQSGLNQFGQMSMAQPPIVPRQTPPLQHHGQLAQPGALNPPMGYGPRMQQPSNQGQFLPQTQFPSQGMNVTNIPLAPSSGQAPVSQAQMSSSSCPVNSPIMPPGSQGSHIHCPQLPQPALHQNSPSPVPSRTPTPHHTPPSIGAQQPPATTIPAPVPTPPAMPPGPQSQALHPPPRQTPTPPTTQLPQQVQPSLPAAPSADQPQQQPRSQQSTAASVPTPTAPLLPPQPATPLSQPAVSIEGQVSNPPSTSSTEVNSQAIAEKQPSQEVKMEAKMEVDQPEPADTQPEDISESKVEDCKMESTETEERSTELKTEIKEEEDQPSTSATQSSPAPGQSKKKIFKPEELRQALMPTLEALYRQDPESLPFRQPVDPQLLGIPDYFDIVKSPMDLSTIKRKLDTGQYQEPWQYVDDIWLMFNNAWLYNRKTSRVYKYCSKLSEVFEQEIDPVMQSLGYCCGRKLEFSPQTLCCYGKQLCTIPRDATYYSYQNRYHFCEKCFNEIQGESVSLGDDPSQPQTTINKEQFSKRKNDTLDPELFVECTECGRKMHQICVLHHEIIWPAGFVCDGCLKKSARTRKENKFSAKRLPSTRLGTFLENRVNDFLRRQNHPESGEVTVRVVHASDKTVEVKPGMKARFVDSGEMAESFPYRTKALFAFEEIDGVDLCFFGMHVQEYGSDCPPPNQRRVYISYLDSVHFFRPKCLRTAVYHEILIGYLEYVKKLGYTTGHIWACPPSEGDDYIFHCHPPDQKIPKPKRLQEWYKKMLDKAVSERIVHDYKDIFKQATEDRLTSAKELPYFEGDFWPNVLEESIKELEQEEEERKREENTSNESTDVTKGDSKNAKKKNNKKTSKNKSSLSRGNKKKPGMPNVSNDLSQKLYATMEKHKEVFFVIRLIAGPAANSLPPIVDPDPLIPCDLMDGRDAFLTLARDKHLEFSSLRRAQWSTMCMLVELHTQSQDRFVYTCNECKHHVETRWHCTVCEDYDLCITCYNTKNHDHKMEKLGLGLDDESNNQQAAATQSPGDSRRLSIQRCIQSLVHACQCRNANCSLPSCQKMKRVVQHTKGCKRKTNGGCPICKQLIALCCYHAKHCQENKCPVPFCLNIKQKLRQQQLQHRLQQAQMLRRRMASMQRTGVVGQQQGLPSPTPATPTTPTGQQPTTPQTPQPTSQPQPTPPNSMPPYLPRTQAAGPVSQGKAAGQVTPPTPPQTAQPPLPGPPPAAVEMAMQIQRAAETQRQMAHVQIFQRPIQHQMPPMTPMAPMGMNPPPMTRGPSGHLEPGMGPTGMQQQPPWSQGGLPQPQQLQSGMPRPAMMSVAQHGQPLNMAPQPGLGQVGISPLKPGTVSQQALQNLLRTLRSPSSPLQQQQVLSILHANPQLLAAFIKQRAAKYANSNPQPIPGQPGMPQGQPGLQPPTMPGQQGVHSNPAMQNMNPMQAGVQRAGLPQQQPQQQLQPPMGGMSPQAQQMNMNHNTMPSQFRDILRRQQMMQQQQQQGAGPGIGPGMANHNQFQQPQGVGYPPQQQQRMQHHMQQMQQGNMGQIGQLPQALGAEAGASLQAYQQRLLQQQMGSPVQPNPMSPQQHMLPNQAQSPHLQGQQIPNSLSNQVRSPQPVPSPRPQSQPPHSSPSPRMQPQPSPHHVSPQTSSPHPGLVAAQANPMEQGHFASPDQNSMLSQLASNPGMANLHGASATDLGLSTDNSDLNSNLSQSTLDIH
Description: as §1
The full length p300 SPA assay was run following the same protocol as p300 HAT SPA assay, but used 6 nM purified full length p300 (purchased from Active Motif) in place of the purified p300-HAT domain.

Structure (SMILES)	IC50 [1]	EC50 [2]	IC50 (full length p300)
Cn1cc(COc2ccc(NC(=O)C(NCCc3ccc(Cl)cc3)c3ccccc3)nc2)cn1 (single isomer, unassigned) [8 Isomer 2]	16.8 nM	69 nM	–
N#Cc1ccc(CCNC(C(=O)Nc2ccc(OC3CCOCC3)cn2)c2ccccc2)cc1 (single isomer, unassigned) [5 Isomer 1]	97.6 nM	–	3.69 nM
CC(CNC(C(=O)Nc1ccc(OC2CN(C(=O)C3CC3)C2)cn1)c1ccccc1)c1ccc(C#N)cc1 (single isomer, unassigned) [21 Isomer 1]	27.4 nM	–	< 2 nM
CC(=O)N1CC(Oc2ccc(NC(=O)C(NCC(C)c3ccc(C#N)cc3)c3cnn(C)c3)nc2)C1 (single isomer, unassigned) [24 Isomer 1]	38 nM	57 nM	< 3 nM
CN1CCC(Oc2ccc(NC(=O)C(NCCc3ccc(C#N)cc3)c3ccccc3)nc2)CC1 (single isomer, unassigned) [1 Isomer 2]	> 5000 nM	–	240 nM
CC(=O)N1CCC(Oc2ccc(NC(=O)C(NCCc3ccc(C#N)cc3)c3ccccc3)nc2)CC1 (single isomer, unassigned) [9 Isomer 1]	56.4 nM	–	4.21 nM
CC(=O)N1CCC[C@@H](Oc2ccc(NC(=O)C(NCCc3ccc(C#N)cc3)c3ccccc3)nc2)C1 (single isomer, unassigned) [16 Isomer 2]	> 2000 nM	–	–
CN1CCC(Oc2ccc(NC(=O)C(NCCc3ccc(Cl)cc3)c3ccccc3)nc2)CC1 (single isomer, unassigned) [11 Isomer 2]	> 2000 nM	–	–
CC(CNC(C(=O)Nc1ccc(Oc2cnn(C)c2)cn1)c1ccccc1)c1ccc(C#N)cc1 (single isomer, unassigned) [17 Isomer 1]	33.7 nM	–	–
N#Cc1ccc(CCNC(C(=O)Nc2ccc(OC3CCOCC3)cn2)c2ccccc2)cc1 (single isomer, unassigned) [5 Isomer 2]	> 2000 nM	–	137 nM
CC(=O)N1CC[C@@H](Oc2ccc(NC(=O)C(NCCc3ccc(C#N)cc3)c3ccccc3)nc2)C1 (single isomer, unassigned) [14 Isomer 2]	> 2000 nM	–	–
CC(=O)N1CC(Oc2ccc(NC(=O)C(NC[C@@H](C)c3ccc(C#N)cc3)c3ccccc3)nc2)C1 (single isomer, unassigned) [2 Isomer 2]	> 2000 nM	–	–

Further lines, results first:

IC50 [1]	EC50 [2]	IC50 (full length p300)	Structure (SMILES)
27.7 nM	35 nM	< 2 nM	CN1CCC(Oc2ccc(NC(=O)C(NCCc3ccc(C#N)cc3)c3ccccc3)nc2)CC1 (single isomer, unassigned) [1 Isomer 1]
> 2000 nM	–	102 nM	CC(=O)N1CCC(Oc2ccc(NC(=O)C(NCCc3ccc(C#N)cc3)c3ccccc3)nc2)CC1 (single isomer, unassigned) [9 Isomer 2]
23.3 nM	31.9 nM	< 3 nM	CC(=O)N1CC(Oc2ccc(NC(=O)C(NCC(C)c3ccc(C#N)cc3)c3cccc(F)c3)nc2)C1 (single isomer, unassigned) [23 Isomer 1]
45.4 nM	–	–	CN1CC(Oc2ccc(NC(=O)C(NCCc3ccc(Cl)cc3)c3ccccc3)nc2)CCC1=O (single isomer, unassigned) [10 Isomer 3]
> 2000 nM	–	–	CC(=O)N1CC(Oc2ccc(NC(=O)C(NCC(C)c3ccc(C#N)cc3)c3cnn(C)c3)nc2)C1 (single isomer, unassigned) [24 Isomer 3]
21.2 nM	20 nM	< 2 nM	CC(=O)N1CC(Oc2ccc(NC(=O)C(NC[C@@H](C)c3ccc(C#N)cc3)c3ccccc3)nc2)C1 (single isomer, unassigned) [2 Isomer 1]
